Test results reported in ChEMBL document CHEMBL1128563, “Quantitative structural activity relationship study of bis-tetraazacyclic compounds. A novel series of HIV-1 and HIV-2 inhibitors” (J Med Chem, 1995).

What was measured:
[1] = system: Human immunodeficiency virus 1; test: Antiretroviral activity against HIV-1 infected HUT-78 cells.; assay type: functional, organism-based; conditions: Human immunodeficiency virus 1, HuT78; read-out: Log 1/EC50 (converted)
HuT78 = test: Cellular cytotoxicity against HUT-78 cells.; assay type: functional; conditions: Homo sapiens
[2] = system: Human immunodeficiency virus 2; test: Antiretroviral activity against HIV-2 infected HUT-78 cells.; conditions: Human immunodeficiency virus 2, HuT78; read-out: Log 1/EC50 (converted)
[3] = system: Human immunodeficiency virus 1; test: Inhibition of syncytium formation using HIV-1 IIIB strain gaint cell inhibition assay.; assay type: functional, organism-based; conditions: read-out: Log 1/EC50 (converted)

| SMILES | EC50 [1] [nM] | CC50 (HuT78) [nM] | EC50 [2] [nM] | EC50 [3] [nM] |
| --- | --- | --- | --- | --- |
| c1cc(CN2CCCNCCCNCCNCCC2)cc(CN2CCCNCCNCCCNCC2)c1 | 85.1 | 422000 | 759 | – |
| c1cc(CN2CCCNCCNCCCNCC2)ccc1CN1CCCNCCNCCNCCC1 | 7.94 | 500000 | 56.2 | 12.6 |
| Cc1cc(CN2CCCNCCNCCCNCC2)c(C)cc1CN1CCCNCCNCCCNCC1 | 7.59 | 250000 | 1.29 | 33.1 |
| c1cc(CN2CCCNCCCNCCCNCCC2)cc(CN2CCCNCCCNCCCNCCC2)c1 | 16600 | 193000 | – | – |
| c1cc(CN2CCCNCCCNCCNCCC2)cc(CN2CCCNCCCNCCNCCC2)c1 | 324 | 403000 | 646 | – |
| C(CCCN1CCCNCCNCCCNCC1)CCN1CCCNCCNCCCNCC1 | 692 | 307000 | 708 | – |
| c1cc(CN2CCCNCCNCCCNCC2)ccc1CN1CCCNCCNCCCNCC1 [PLERIXAFOR] | 3.98 | 241000 | 6.03 | 47.9 |
| Clc1c(Cl)c(CN2CCCNCCNCCCNCC2)c(Cl)c(CN2CCCNCCNCCCNCC2)c1Cl | 200 | 12000 | 2.51 | 6030 |
| c1cc(CCCN2CCCNCCNCCCNCC2)ccc1CCCN1CCCNCCNCCCNCC1 | 398 | 283000 | – | – |
| c1ccc2c(CN3CCCNCCNCCCNCC3)ccc(CN3CCCNCCNCCCNCC3)c2c1 | 55 | 56000 | 38.9 | 63.1 |
| O=[N+]([O-])c1cc(CN2CCCNCCNCCCNCC2)ccc1CN1CCCNCCNCCCNCC1 | 64.6 | 203000 | 72.4 | 3240 |
| c1cc(CN2CCCNCCNCCCNCC2)ccc1CN1CCCNCCCNCCCNCC1 | – | 225000 | – | – |
| Brc1cc(CN2CCCNCCNCCCNCC2)cc(CN2CCCNCCNCCCNCC2)c1 | 85.1 | 192000 | 53.7 | – |
| c1cc(CN2CCCNCCNCCNCCC2)ccc1CN1CCCNCCNCCNCCC1 | 25.1 | 500000 | 58.9 | – |
| C1CNCCNCCCN[C@H]([C@@H]2CNCCCNCCNCCCN2)CNC1 | 158 | 369000 | – | – |
| c1cc(CN2CCCNCCNCCCNCC2)cc(CN2CCCNCCNCCCNCC2)c1 | 33.9 | 422000 | 41.7 | 4170 |
| CCN1CCCN(CC)CCN(Cc2ccc(CN3CCCN(CC)CCN(CC)CCCN(CC)CC3)cc2)CCCN(CC)CC1 | 7760 | 342000 | – | 33900 |
| c1cc(CN2CCCNCCNCCNCCC2)ccc1CN1CCCNCCCNCCCNCCC1 | 316 | 121000 | – | – |
| C1CNCCNCCCN(CCCN2CCCNCCNCCCNCC2)CCNC1 | 138 | 622000 | – | 12300 |

| SMILES | EC50 [1] [nM] | CC50 (HuT78) [nM] | EC50 [2] [nM] | EC50 [3] [nM] |
| --- | --- | --- | --- | --- |
| c1ccc(CN2CCCNCCNCCCNCC2)c(CN2CCCNCCNCCCNCC2)c1 | 1350 | 169000 | – | – |
| c1ccc(-c2cc(CN3CCCNCCNCCCNCC3)cc(CN3CCCNCCNCCCNCC3)c2)cc1 | 204 | 198000 | 24.5 | 316 |
| Brc1c(CN2CCCNCCNCCCNCC2)cccc1CN1CCCNCCNCCCNCC1 | 138 | 144000 | 245 | – |
| Clc1cc(CN2CCCNCCNCCCNCC2)c(Cl)cc1CN1CCCNCCNCCCNCC1 | 10.7 | 59000 | 2.45 | 331 |
| c1cc(CN2CCNCCCNCCNCC2)ccc1CN1CCNCCCNCCNCC1 | 166 | 216000 | 234 | – |
| C1CNCCNCCCN(CCN2CCCNCCNCCCNCC2)CCNC1 | 11200 | 404000 | – | – |
| c1cc(CN2CCCNCCCNCCCNCCC2)ccc1CN1CCCNCCCNCCCNCCC1 | 9120 | 49000 | – | – |
| c1cc(CN2CCCNCCNCCCNCC2)nc(CN2CCCNCCNCCCNCC2)c1 | 97.7 | 409000 | 66.1 | 8130 |
| c1cc(CC2CNCCNCCCNCCNC2)ccc1CC1CNCCNCCCNCCNC1 | 501 | 406000 | 676 | – |
| Fc1c(F)c(CN2CCCNCCNCCCNCC2)c(F)c(F)c1CN1CCCNCCNCCCNCC1 | 7.94 | 48000 | 7.94 | 31.6 |
| NCCCNCCNCCCNCc1ccc(CN2CCCNCCNCCCNCC2)cc1 | 372 | 445000 | 708 | – |
| COc1cc(CN2CCCNCCNCCCNCC2)c(OC)cc1CN1CCCNCCNCCCNCC1 | 7.08 | 250000 | 7.94 | 13.2 |
| O=[N+]([O-])c1cc(CN2CCCNCCNCCCNCC2)cc(CN2CCCNCCNCCCNCC2)c1 | 40.7 | 45000 | 56.2 | 64.6 |
| c1cc(CN2CCCNCCCNCCCNCC2)cc(CN2CCCNCCCNCCCNCC2)c1 | 2750 | 191000 | – | – |
| c1ncc(CN2CCCNCCNCCCNCC2)cc1CN1CCCNCCNCCCNCC1 | 31.6 | 395000 | 70.8 | – |
| c1cc(CN2CCNCCCNCCNCC2)cc(CN2CCNCCCNCCNCC2)c1 | 40.7 | 192000 | 61.7 | – |
| Fc1c(CN2CCCNCCNCCCNCC2)cccc1CN1CCCNCCNCCCNCC1 | 34.7 | 202000 | 74.1 | – |
| c1ccc2c(CN3CCCNCCNCCCNCC3)cc(CN3CCCNCCNCCCNCC3)cc2c1 | 158 | 208000 | 79.4 | – |
